Measured values published in patent US8906860B2, “Methods and compositions inhibiting tumor cell proliferation” (The Board of Trustees of the University of Illinois, priority 2011, dated 2014).
Square brackets hold non-standard residues; d marks the D form. Ends that are not written are not given here.

Tests used:
[1] = test system: FoxM1B transcriptional activity; assay: FoxM1B transcriptional activity, 6xFoxM1B TATA-luciferase reporter assay in transfected U2OS cells; type: cell-based, human; settings: 12 μM peptide, 24 hours
Text: A 6×FoxM1B/FoxA TATA-Luciferase utilized 6 copies of the FoxM1B/FoxA binding site (TTTGTTTGTTTG; SEQ ID NO: 6) from the cdx-2 promoter region driving expression of the CMV-TATA box luciferase reporter gene as described previously (Rausa et al., 2003, Mol. Cell. Biol. 23:437-449; Samadani et al., 1996, Mol. Cell. Biol. 16:6273-6284; Ye et al., 1997, Mol. Cell Biol. 17:1626-1641).
Inhibiting Cdk1 activity with either dominant negative (DN) Cdk1 or a pharmacologically active concentration of Alsterpaullone (1 μM) caused an 80% to 90% reduction in FoxM1B transcriptional activity (FIG. 6C). […] Consistent with these findings, stimulation of Cdk1 activity by co-transfection of either CMV Cdc25B or Cdc25C phosphatases enhanced FoxM1B transcriptional activity by 3.4-fold and 1.7-fold, respectfully (FIGS. 6B and 6D). […]
Human osteosarcoma U2OS cells were maintained in DMEM supplemented with 10% fetal calf serum, 1×Pen/Strep and 1×L-Glutamine (Gibco). […] Luciferase activity was determined as percent of wild type FoxM1B activity following normalization to Renilla activity. Experiments were performed at least four times in triplicate and mean±SD determined. […]

[2] = test system: CMV-TETO GFP-Foxm1b U2OS clone C3 cells; assay: Soft agar colony formation, Doxycycline induced GFP-FoxM1B U2OS clone C3 cells; type: cell-based, human; settings: 12 μM peptide, 1 μg/ml Doxycycline, two weeks
Method: (§1) The T-REx™-U2OS cells were purchased from Invitrogen Life Technologies (Catalog No. R712-07). The T-REx™-U2OS cells express the Tet repressor from pCEP4/tetR that was episomally maintained in tissue culture medium containing 10% fetal calf serum and drug selection with 50 μg/ml of Hygromycin B. Tetracycline regulation in the T-REx System was based on the binding of tetracycline to the TET repressor and de-repressing of the CMV-TETO promoter controlling expression of the gene of interest (Yao et al., 1998, Hum Gene Ther 9:1939-1950). The pcDNA4-TO GFP-FoxM1B expression plasmid provided in the T-REx™ system was generated as described previously (Major et al., 2004, Mol. Cell. Biol. 24:2649-2661) and transfected T-REx™-U2OS cells with linearized pcDNA4-TO GFP-Foxm1b expression plasmid to select clonal Doxycycline inducible GFP-Foxm1b U2OS cell lines. CMV-TETO GFP-FoxM1B U2OS clones were isolated by selection for three weeks with tissue culture medium containing 50 μg/ml of Hygromycin B and 250 μg/ml of Zeocin. […] Wild type U2OS cells or CMV-TETO GFP-Foxm1b U2OS clone C3 cells were grown in medium with or without 1 μg/ml of Doxycycline for 2 days prior to either adding the (D-Arg)9-p19^ARF 26-44 peptide or left untreated. […] U2OS cell colonies that were larger than 1 mm in size were scored after two weeks of growth on the soft agar.

parental U2OS cells = assay: Soft agar colony formation, parental U2OS cells; type: cell-based, human; settings: 12 μM peptide, two weeks
Method: as §1

HCC = settings: cited from earlier work

rrrrrrrrrKFVRSRRPRTASCALAFVN ([dR][dR][dR][dR][dR][dR][dR][dR][dR]KFVRSRRPRTASCALAFVN; not fully specified (N-terminus, C-terminus); printed as rrrrrrrrrKFVRSRRPRTASCALAFVN; also: end groups differ between preparations (TRITC N-term/acetyl C-term vs Ac N-term/amide C-term); listed as Mus musculus) [(D-Arg)9-p19^ARF 26-44 peptide, p19ARF 26-44 peptide containing nine D-Arg residues at the N-terminus]
Effect on FoxM1B transcriptional activity [1]: significant reduction in FoxM1B transcriptional activity
FoxM1B induced colony formation on soft agar [2]: significantly diminished the ability of induced GFP-FoxM1B to stimulate colony formation
Colony formation on soft agar (parental U2OS cells): significantly diminished the ability of the parental U2OS cells to form colonies on soft agar
HCC tumor size / progression (HCC; mouse HCC (DEN/PB induced)): effective in diminishing tumor size in HCC
Metastasis of HCC cells (HCC; mouse HCC cells): effectively prevented pulmonary metastasis of HCC cells
